Measured values taken from PubChem BioAssay (NCI).
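Values below derive from 48-hour exposures of cells grown in 96-well plates, with endpoints linearly interpolated between the two concentrations bracketing the appropriate inhibition level. GI50 marks 50% less growth. The concentration for full growth arrest is given as TGI.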

Legend:
Assay in all cases: growth of human tumour cells (NCI), 48 h
MALME-3M melanoma = tested on: MALME-3M melanoma
SW-620 colon = tested on: SW-620 colon
HCT-15 colon = tested on: HCT-15 colon
SK-MEL-2 melanoma = tested on: SK-MEL-2 melanoma
UO-31 renal = tested on: UO-31 renal
HOP-92 NSCLC = tested on: HOP-92 NSCLC
NCI-H226 lung = tested on: NCI-H226 lung
ACHN renal = tested on: ACHN renal
OVCAR-4 ovarian = tested on: OVCAR-4 ovarian
COLO 205 colon = tested on: COLO 205 colon
DU-145 prostate = tested on: DU-145 prostate
UACC-62 melanoma = tested on: UACC-62 melanoma
HCT-116 colon = tested on: HCT-116 colon
SK-MEL-5 melanoma = tested on: SK-MEL-5 melanoma
BT-549 breast = tested on: BT-549 breast
NCI-H460 lung = tested on: NCI-H460 lung
MDA-MB-468 breast = tested on: MDA-MB-468 breast
M14 melanoma = tested on: M14 melanoma
SF-295 CNS = tested on: SF-295 CNS
OVCAR-3 ovarian = tested on: OVCAR-3 ovarian
OVCAR-5 ovarian = tested on: OVCAR-5 ovarian
UACC-257 melanoma = tested on: UACC-257 melanoma
EKVX NSCLC = tested on: EKVX NSCLC
HL-60(TB) leukemia = tested on: HL-60(TB) leukemia
A549 NSCLC = tested on: A549 NSCLC
PC-3 prostate = tested on: PC-3 prostate
MDA-MB-435 = tested on: MDA-MB-435
OVCAR-8 ovarian = tested on: OVCAR-8 ovarian
HS 578T breast = tested on: HS 578T breast
NCI/ADR-RES ovarian = tested on: NCI/ADR-RES ovarian
SF-268 CNS = tested on: SF-268 CNS
A498 renal = tested on: A498 renal
SN12C renal = tested on: SN12C renal
NCI-H23 lung = tested on: NCI-H23 lung
IGROV1 ovarian = tested on: IGROV1 ovarian
SF-539 CNS = tested on: SF-539 CNS
SK-OV-3 ovarian = tested on: SK-OV-3 ovarian
SR leukemia = tested on: SR leukemia
HT29 colon = tested on: HT29 colon
CAKI-1 renal = tested on: CAKI-1 renal
HCC-2998 colon = tested on: HCC-2998 colon
KM12 colon = tested on: KM12 colon
SNB-19 CNS = tested on: SNB-19 CNS
LOX IMVI melanoma = tested on: LOX IMVI melanoma
MCF7 breast = tested on: MCF7 breast
U251 CNS = tested on: U251 CNS
TK-10 renal = tested on: TK-10 renal
T-47D breast = tested on: T-47D breast
SNB-75 CNS = tested on: SNB-75 CNS
CCRF-CEM leukemia = tested on: CCRF-CEM leukemia
MOLT-4 leukemia = tested on: MOLT-4 leukemia
RPMI-8226 leukemia = tested on: RPMI-8226 leukemia
NCI-H522 lung = tested on: NCI-H522 lung
HOP-62 NSCLC = tested on: HOP-62 NSCLC
MDA-MB-231 breast = tested on: MDA-MB-231 breast
SK-MEL-28 melanoma = tested on: SK-MEL-28 melanoma
K-562 leukemia = tested on: K-562 leukemia
786-0 renal = tested on: 786-0 renal

## Cc1ccc(Cl)cc1NC(=O)N/C(N)=N/c1nc2ccccc2s1
MALME-3M melanoma
  GI50: 54.4 nM
  TGI: 12000 nM
SW-620 colon
  GI50: 44.5 nM
  TGI: 14400 nM
HCT-15 colon
  GI50: 40.5 nM
  TGI: 3000 nM
SK-MEL-2 melanoma
  GI50: 95 nM
  TGI: 941 nM
UO-31 renal
  GI50: 59.3 nM
  TGI: 10200 nM
HOP-92 NSCLC
  GI50: 1170 nM
  TGI: 10900 nM
NCI-H226 lung
  GI50: 187 nM
  TGI: 2550 nM
ACHN renal
  GI50: 79.4 nM
  TGI: 6370 nM
OVCAR-4 ovarian
  GI50: 1580 nM
  TGI: 16300 nM
COLO 205 colon
  GI50: 67.9 nM
  TGI: 285 nM
DU-145 prostate
  GI50: 47.1 nM
  TGI: 2850 nM
UACC-62 melanoma
  GI50: 46.7 nM
  TGI: 5530 nM
HCT-116 colon
  GI50: 37.1 nM
  TGI: 696 nM
SK-MEL-5 melanoma
  GI50: 33.2 nM
  TGI: 136 nM
BT-549 breast
  GI50: 183 nM
  TGI: 1370 nM
NCI-H460 lung
  GI50: 39.1 nM
  TGI: 1320 nM
MDA-MB-468 breast
  GI50: 217 nM
  TGI: 650 nM
M14 melanoma
  GI50: 25.6 nM
  TGI: 523 nM
SF-295 CNS
  GI50: 29.9 nM
  TGI: 1300 nM
OVCAR-3 ovarian
  GI50: 36.8 nM
  TGI: 1330 nM
OVCAR-5 ovarian
  GI50: 131 nM
  TGI: 4960 nM
UACC-257 melanoma
  GI50: 6470 nM
  TGI: 33200 nM
EKVX NSCLC
  GI50: 109 nM
  TGI: 15200 nM
HL-60(TB) leukemia
  GI50: 30.9 nM
  TGI: 843 nM
A549 NSCLC
  GI50: 115 nM
  TGI: 4500 nM
PC-3 prostate
  GI50: 55.1 nM
  TGI: 11300 nM
MDA-MB-435
  GI50: 20.3 nM
  TGI: 43.5 nM
OVCAR-8 ovarian
  GI50: 43.8 nM
  TGI: 2080 nM
HS 578T breast
  GI50: 34.3 nM
  TGI: 22700 nM
NCI/ADR-RES ovarian
  GI50: 23 nM
  TGI: 54.9 nM
SF-268 CNS
  GI50: 493 nM
  TGI: 26600 nM
A498 renal
  GI50: 12400 nM
  TGI: 25800 nM
SN12C renal
  GI50: 64.1 nM
  TGI: 2440 nM
NCI-H23 lung
  GI50: 45.2 nM
  TGI: 3570 nM
IGROV1 ovarian
  GI50: 99.2 nM
  TGI: 2860 nM
SF-539 CNS
  GI50: 22.2 nM
  TGI: 54.7 nM
SK-OV-3 ovarian
  GI50: 62.4 nM
  TGI: 4730 nM
SR leukemia
  GI50: 51.3 nM
HT29 colon
  GI50: 28.9 nM
  TGI: 118 nM
CAKI-1 renal
  GI50: 45.6 nM
  TGI: 6660 nM
HCC-2998 colon
  GI50: 67.6 nM
  TGI: 1110 nM
KM12 colon
  GI50: 45.5 nM
  TGI: 7120 nM
SNB-19 CNS
  GI50: 66.5 nM
  TGI: 15200 nM
LOX IMVI melanoma
  GI50: 61.9 nM
  TGI: 1520 nM
MCF7 breast
  GI50: 199 nM
  TGI: 11400 nM
U251 CNS
  GI50: 37 nM
  TGI: 3670 nM
TK-10 renal
  GI50: 4950 nM
  TGI: 16600 nM
T-47D breast
  GI50: 1320 nM
  TGI: 53200 nM
SNB-75 CNS
  GI50: 125 nM
  TGI: 9290 nM
CCRF-CEM leukemia
  GI50: 37.1 nM
  TGI: 7470 nM
MOLT-4 leukemia
  GI50: 60.3 nM
  TGI: 8400 nM
RPMI-8226 leukemia
  GI50: 42.5 nM
  TGI: 6190 nM
NCI-H522 lung
  GI50: 24.7 nM
  TGI: 88.3 nM
HOP-62 NSCLC
  GI50: 50.8 nM
  TGI: 2980 nM
MDA-MB-231 breast
  GI50: 39.2 nM
  TGI: 278 nM
SK-MEL-28 melanoma
  GI50: 608 nM
  TGI: 19900 nM
K-562 leukemia
  GI50: 34.6 nM
  TGI: > 33900 nM
786-0 renal
  GI50: 64.1 nM
  TGI: 4020 nM
